Patent US20260240869A1, “ANTIPSEUDOMONAL FUSIDIC ACID COMPOUNDS” (priority 2022, published 2026)

What was measured:
[1] = system: clinical isolates of P. aeruginosa; experiment: MIC against panel of clinical isolates of P. aeruginosa; assay type: cell-based, Pseudomonas aeruginosa; settings: for MIC: Pseudomonas aeruginosa
Experimental: Antimicrobial Susceptibility Tests. Susceptibility testing was performed in biological triplicate, using the microdilution broth method as outlined by the Clinical and Laboratory Standards Institute. Bacteria were cultured with cation-adjusted Meuller-Hinton broth (Sigma-Aldrich; catalogue number: 90922) or Luria-Bertani (LB) broth (Lennox) in round-bottom 96-well plates (Corning; catalogue number: 3788).

E. coli MG1655 = experiment: LC-MS/MS whole-cell accumulation assay, E. coli MG1655; assay type: cell-based; settings: E. coli MG1655; accumulation of FA reported (Table 8)
Experimental: Accumulation Assay. The accumulation assay was performed in triplicate in batches of ten samples, with each batch containing tetracycline or ciprofloxacin as a positive control. P. aeruginosa PAO1, PAO1 A6, PA14, PA14 A40, and PA1280, and E. coli MG1655 were used in these experiments. For each replicate, 2.5 mL (E. coli) or 5 mL (P. aeruginosa) of an overnight culture was diluted into 250 mL of fresh Luria-Bertani broth (Lennox) or Tryptic Soy Broth (TSB) and grown at 37° C. with shaking to an optical density (OD600) of 0.55-0.60. The bacteria were pelleted at 3220 r.c.f. for 10 min at 4° C., and the supernatant was discarded. The pellets were resuspended in 40 mL of phosphate buffered saline (PBS) and pelleted as before, and the supernatant was discarded. The pellets were resuspended in 8.8 mL of fresh PBS and aliquoted into ten, 1.5 mL Eppendorf tubes (875 μL each). The number of colony-forming units (CFUs) was determined by a calibration curve. The samples were equilibrated at 37° C. with shaking for 5 min; compound was added (final concentration=50 μM), and then the samples were incubated at 37° C. with shaking for either 10 min. These time points were short enough to minimize metabolic and growth changes (no changes in OD600 or CFU count observed). After incubation, 800 μL of the cultures was carefully layered on 700 μL of silicone oil (9:1 AR20/Sigma High Temperature, cooled to −78° C.). Bacteria were pelleted through the oil by centrifuging at 13 000 r.c.f. for 2 min at room temperature (with the supernatant remaining above the oil); the supernatant and oil were then removed by pipetting. To lyse the samples, each pellet was dissolved in […] of water, and then, they were subjected to three (E. coli) or four (P. aeruginosa) freeze-thaw cycles of 3 min in liquid nitrogen followed by 3 min in a water bath at 65° C. P. aeruginosa samples were then treated with 50 µM DNase and RNase and incubated at 37° C. for 15 minutes. The lysates were pelleted at 13 000 r.c.f. for 2 min at room temperature, and the supernatant was collected ([…]). The debris was resuspended in 100 μL of methanol and pelleted as before. The supernatants were removed and combined with the previous supernatants collected. Finally, the remaining debris was removed by centrifuging at 20 000 r.c.f. for 10 min at room temperature. Supernatants were analyzed by LC-MS/MS.
Samples were analyzed with the 5500 QTRAP LC/MS/MS system (AB Sciex) with a 1200 series HPLC system (Agilent Technologies) including a degasser, an autosampler, and a binary pump. Liquid chromatography separation was performed on an Agilent SB-Aq column (4.6×50 mm, 5 μm) (Agilent Technologies) with mobile phase A (0.1% formic acid in water) and mobile phase B (0.1% formic acid in acetonitrile). The flow rate was 0.3 mL/min. The linear gradient was as follows: 0-3 min, 100% mobile phase A; 10-15 min, 2% mobile phase A; 15.5-21 min, 100% mobile phase A. The autosampler was set at 5° C. The injection volume was 15 μL. Mass spectra were acquired with both positive electrospray ionization at the ion spray voltage of 5500 V and negative electrospray ionization at the ion spray voltage of −4500 V. The source temperature was 450° C. The curtain gas, ion source gas 1, and ion source gas 2 were 33, 50, and 65, respectively. Multiple reaction monitoring was used to quantify the metabolites. Power analysis was not used to determine the number of replicates. Error bars represent the standard error of the mean of three biological replicates. The statistical significance of the accumulation was determined using a two sample Welch's t test (one-tailed test, assuming unequal variance) relative to the negative controls. All compounds evaluated in the biological assays were >95% pure.

## CC(=O)O[C@H]1C[C@@]2(C)[C@@H](C[C@@H](O)[C@H]3[C@@]4(C)CC[C@@H](O)[C@@H](C)[C@@H]4CC[C@@]32C)/C1=C(\CCC=C(C)C)C(=O)O/N=C(\N)CNCCCNCCCNCCCN [FA prodrug, (3R, 4S,5S,8S,9S,10S,11R,13R,14S,16S,Z)-17-((Z)-1,14-diamino-22-methyl-17-oxo-16-oxa-4,8,12,15-tetraazatricosa-14,21-dien-18-ylidene)-3,11-dihydroxy-4,8,10,14-tetramethylhexadecahydro-1H-cyclopenta[a]phenanthren-16-yl acetate]
[1]; FIG. 5c
  improved activity relative to FA against 75 clinical isolates: 64-256 ×
[1]; AR Bank Isolate # 0054
  MIC: 16 µg/mL
[1]; AR Bank Isolate # 0064
  MIC: 16 µg/mL
[1]; AR Bank Isolate # 0090
  MIC: 16 µg/mL
[1]; AR Bank Isolate # 0092
  MIC: 16 µg/mL
[1]; AR Bank Isolate # 0095
  MIC: 16 µg/mL
[1]; AR Bank Isolate # 0100
  MIC: 16 µg/mL
[1]; AR Bank Isolate # 0103
  MIC: 16 µg/mL
[1]; AR Bank Isolate # 0110
  MIC: 16 µg/mL
[1]; AR Bank Isolate # 0229
  MIC: 16 µg/mL
[1]; AR Bank Isolate # 0230
  MIC: 16 µg/mL
[1]; AR Bank Isolate # 0231
  MIC: 8 µg/mL
[1]; AR Bank Isolate # 0232
  MIC: 16 µg/mL
[1]; AR Bank Isolate # 0233
  MIC: 16 µg/mL
[1]; AR Bank Isolate # 0234
  MIC: 8 µg/mL
[1]; AR Bank Isolate # 0235
  MIC: 8 µg/mL
[1]; AR Bank Isolate # 0236
  MIC: 16 µg/mL
[1]; AR Bank Isolate # 0237
  MIC: 16 µg/mL
[1]; AR Bank Isolate # 0239
  MIC: 8 µg/mL
[1]; AR Bank Isolate # 0240
  MIC: 16 µg/mL
[1]; AR Bank Isolate # 0241
  MIC: 16 µg/mL
[1]; AR Bank Isolate # 0242
  MIC: 8 µg/mL
[1]; AR Bank Isolate # 0243
  MIC: 16 µg/mL
[1]; AR Bank Isolate # 0244
  MIC: 16 µg/mL
[1]; AR Bank Isolate # 0245
  MIC: 16 µg/mL
[1]; AR Bank Isolate # 0246
  MIC: 8 µg/mL
[1]; AR Bank Isolate # 0248
  MIC: 8 µg/mL
[1]; AR Bank Isolate # 0250
  MIC: 16 µg/mL
[1]; AR Bank Isolate # 0252
  MIC: 16 µg/mL
[1]; AR Bank Isolate # 0254
  MIC: 32 µg/mL
[1]; AR Bank Isolate # 0265
  MIC: 16 µg/mL
[1]; AR Bank Isolate # 0763
  MIC: 16 µg/mL
[1]; AR Bank Isolate # 0767
  MIC: 16 µg/mL
[1]; AR Bank Isolate # 0769
  MIC: 16 µg/mL
[1]; AR Bank Isolate # 0772
  MIC: 8 µg/mL
[1]; Carle Isolate ID # Cl-02
  MIC: 8 µg/mL
[1]; Carle Isolate ID # Cl-03
  MIC: 8 µg/mL
[1]; Carle Isolate ID # Cl-04
  MIC: 16 µg/mL
[1]; Carle Isolate ID # Cl-05
  MIC: 8 µg/mL
[1]; Carle Isolate ID # Cl-06
  MIC: 8 µg/mL
[1]; Carle Isolate ID # Cl-07
  MIC: 8 µg/mL
[1]; Carle Isolate ID # Cl-08
  MIC: 8 µg/mL
[1]; Carle Isolate ID # Cl-09
  MIC: 8 µg/mL
[1]; Carle Isolate ID # Cl-10
  MIC: 16 µg/mL
[1]; Carle Isolate ID # Cl-11
  MIC: 8 µg/mL
[1]; Carle Isolate ID # Cl-12
  MIC: 8 µg/mL
[1]; Carle Isolate ID # Cl-13
  MIC: 16 µg/mL
[1]; Carle Isolate ID # Cl-14
  MIC: 8 µg/mL
[1]; Carle Isolate ID # Cl-15
  MIC: 8 µg/mL
[1]; Carle Isolate ID # Cl-19
  MIC: 8 µg/mL
[1]; Cubist Strain ID # 996
  MIC: 8 µg/mL
[1]; Cubist Strain ID # 997
  MIC: 8 µg/mL
[1]; Cubist Strain ID # 998
  MIC: 8 µg/mL
[1]; Cubist Strain ID # 999
  MIC: 8 µg/mL
[1]; Cubist Strain ID # 1000
  MIC: 16 µg/mL
[1]; Cubist Strain ID # 1001
  MIC: 16 µg/mL
[1]; Cubist Strain ID # 1174
  MIC: 16 µg/mL
[1]; Cubist Strain ID # 1175
  MIC: 16 µg/mL
[1]; Cubist Strain ID # 1176
  MIC: 16 µg/mL
[1]; Cubist Strain ID # 1280
  MIC: 16 µg/mL
[1]; Cubist Strain ID # 1282
  MIC: 16 µg/mL
[1]; Cubist Strain ID # 1283
  MIC: 16 µg/mL
[1]; Cubist Strain ID # 1284
  MIC: 16 µg/mL
[1]; Cubist Strain ID # 1586
  MIC: 16 µg/mL
[1]; Cubist Strain ID # 1590
  MIC: 32 µg/mL
[1]; Cubist Strain ID # 1591
  MIC: 32 µg/mL
[1]; Cubist Strain ID # 1592
  MIC: 32 µg/mL
[1]; Cubist Strain ID # 1905
  MIC: 16 µg/mL
[1]; Cubist Strain ID # 1906
  MIC: 16 µg/mL
[1]; Cubist Strain ID # 2242
  MIC: 8 µg/mL
[1]; Cubist Strain ID # 2243
  MIC: 16 µg/mL
[1]; Cubist Strain ID # 2244
  MIC: 8 µg/mL
[1]; Other strains (ref.) 1113
  MIC: 16 µg/mL
[1]; Other strains (ref.) 1727
  MIC: 8 µg/mL
E. coli MG1655
  EC Accumulation (FA): 3337 ± 175 nmol/1012 CFUs
